Assay results as given in patent US3965260A, “Anti-inflammatory dipeptide” (McArthur; John N., priority 1975, dated 1976).
Peptide text beside a SMILES is read from it.

Experiments:
[1] = system: mammalian plasma and tissue peptidases
[2] = in vivo

With N[C@H](Cc1ccccc1)C(=O)N[C@H](Cc1ccccc1)C(=O)O [D-phenylalanyl-D-phenylalanine] (HELM PEPTIDE1{[dF].[dF]}$$$$V2.0) the “hydrolysis by mammalian plasma and tissue peptidases” value (“hydrolysis” for short) [1] was “resist rapid hydrolysis” and the half life [2] was at least 6 h.

With N[C@H](Cc1c[nH]c2ccccc12)C(=O)N[C@H](Cc1c[nH]c2ccccc12)C(=O)O [D-tryptophanyl-D-tryptophan] (HELM PEPTIDE1{[dW].[dW]}$$$$V2.0) the “hydrolysis” value [1] was “resist rapid hydrolysis” and the half life [2] was at least 6 h.

In the case of N[C@H](Cc1ccccc1)C(=O)N[C@H](Cc1c[nH]c2ccccc12)C(=O)O [D-phenylalanyl-D-tryptophan] (HELM PEPTIDE1{[dF].[dW]}$$$$V2.0), the “hydrolysis” value [1] is reported as “resist rapid hydrolysis” and the half life [2] is reported as at least 6 h.

For N[C@H](Cc1c[nH]c2ccccc12)C(=O)N[C@H](Cc1ccccc1)C(=O)O [D-tryptophanyl-D-phenylalanine] (HELM PEPTIDE1{[dW].[dF]}$$$$V2.0), the “hydrolysis” value [1] was “resist rapid hydrolysis” and the half life [2] was at least 6 h.
